Experiments:
β-glucosidase = assay: Action of β-glucosidase; assay type: biochemical
[1] = Acidity of aqueous solution; assay type: physicochemical
Source text: (§1) The physicochemical properties of neotrehalose were studied with a high-purity crystalline neotrehalose specimen prepared by the method in Experiment 2-1.

[2] = Hygroscopicity and deliquescence; assay type: physicochemical; conditions: crystal
Source text: as §1

Heat of dissolution = assay type: physicochemical; conditions: crystal
Source text: The physicochemical properties of lactoneotrehalose were studied with a high-purity crystalline lactoneotrehalose specimen prepared by the method in Experiment 1-1.

β-galactosidase = assay: Action of β-galactosidase; assay type: biochemical
α-glucosidase = assay: Action of α-glucosidase; assay type: biochemical
Source text: as §1

Solubility in solvents = assay type: physicochemical
Source text: as §1

trehalase = assay: Hydrolysis by trehalase; assay type: biochemical
Source text: as §1

[3] = Solubility in water at 25° C.; assay type: physicochemical; conditions: crystal in the form of anhydride, in 100 g water at 25° C.
Source text: as §1

7 week-old dd mice = assay: Acute toxicity, oral, mice; assay type: in vivo
Source text: A crystalline neotrehalose specimen, prepared by the method in Experiment 2-1, was orally administered to 7 week-old dd mice for acute toxicity test.

[4] = Digestion test: oral load test, blood sugar and insulin levels; assay type: in vivo; conditions: healthy volunteers
Source text: In accordance with the method described in H. Atsuji et al., Journal of Clinical Nutrition, Vol.41, Vol.2, pp.200-208 (1972), the load test by orally-administering to healthy volunteers a crystalline neotrehalose specimen prepared by the method in Experiment 2-1 was done, and their blood was sampled at prescribed time intervals and subjected to the measurements of the blood sugar and insulin levels. As control, glucose was used.

OC[C@H]1O[C@@H](O[C@H]2[C@H](O)[C@@H](O)[C@H](O[C@H]3O[C@H](CO)[C@@H](O)[C@H](O)[C@H]3O)O[C@@H]2CO)[C@H](O)[C@@H](O)[C@H]1O [lactoneotrehalose, O-β-D-galactopyranosyl-(1→4)-O-β-D-glucopyranosyl α-D-glucopyranoside]
products formed by the action of β-glucosidase (β-glucosidase): D-glucose and lactose are formed
acidity of an aqueous solution of the crystal [1]: neutral or slight acidity
hygroscopicity and deliquescence [2]: Free of hygroscopicity and deliquescence
Heat of dissolution (Heat of dissolution): 20.0 cal/g
products formed by the action of β-galactosidase (β-galactosidase): D-galactose and neotrehalose are formed

OC[C@H]1O[C@@H](O[C@H]2O[C@H](CO)[C@@H](O)[C@H](O)[C@H]2O)[C@H](O)[C@@H](O)[C@@H]1O [neotrehalose, O-α-D-glucopyranosyl β-D-glucopyranoside]
product formed by the action of α-glucosidase (α-glucosidase): D-glucose is formed
Solubility in solvents (Solubility in solvents; 0.1N hydrochloric acid): Readily soluble
Solubility in solvents (Solubility in solvents; 0.1N sodium hydroxide): Readily soluble
Solubility in solvents (Solubility in solvents; chloroform): insoluble
Solubility in solvents (Solubility in solvents; ethanol): scarcely soluble
Solubility in solvents (Solubility in solvents; ethyl acetate): insoluble
Solubility in solvents (Solubility in solvents; methanol): scarcely soluble
Solubility in solvents (Solubility in solvents; water): Readily soluble
hydrolysis by trehalase (trehalase): not hydrolyzed by trehalase
acidity of an aqueous solution of the crystal [1]: neutral or slight acidity
hygroscopicity and deliquescence [2]: Free of hygroscopicity and deliquescence
Solubility [3]: Fifty-five
toxicity (7 week-old dd mice): extremely low
animal death (7 week-old dd mice; up to 5 g of the specimen, higher dose was difficult to do): no animal death was noted
digestion, absorption, metabolism and utilization [4]: readily digested, absorbed, metabolized and utilized into energy
time of maximum level of blood sugar after the administration [4]: 0.5 to 1 h
time of maximum level of insulin after the administration [4]: 0.5 to 1 h
blood sugar and insulin behaviour compared with glucose ([4]; control glucose): behaved similarly as to glucose

From patent US5714476A, “Process for preparing compositions containing neotrehalose” (Kabushiki Kaisha Hayashibara Seibutsu Kagaku Kenkyujo, priority 1990, dated 1998)
